Reference: the supplement of paper PMC10307832

Columns and labels:
Test in all cases: relative viability (nuclei count vs DMSO), 5 days (fraction); higher = more cells survive
[1] = compound: CC[C@H](C)N1C=C(C2=C(C=C(C=C21)C3=CN=C(C=C3)N4CCNCC4)C(=O)NCC5=C(C=C(NC5=O)C)C)C [GSK126] + C[C@@H](Oc1cc(-c2cnn(C3CCNCC3)c2)cnc1N)c1c(Cl)ccc(F)c1Cl [Crizotinib] (partner 1 µM)
Method in brief: (§1)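 Values are medians from duplicate plates. Each reflects relative viability, defined as the nuclei count of treated wells over that of vehicle wells. Lung cancer cell lines in 1536-well plates were pin-tool dosed one day after seeding with one drug alone or with a fixed anchor-drug dose plus five library-drug doses (not always all listed) in √10 steps, then fixed, stained and imaged at 4× after 5 days.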

[2] = compound: CC[C@H](C)N1C=C(C2=C(C=C(C=C21)C3=CN=C(C=C3)N4CCNCC4)C(=O)NCC5=C(C=C(NC5=O)C)C)C [GSK126] + Nc1ncn([C@H]2C[C@H](O)[C@@H](CO)O2)c(=O)n1 [Decitabine] (partner 2 µM)
Method in brief: as §1

[3] = compound: CC[C@H](C)N1C=C(C2=C(C=C(C=C21)C3=CN=C(C=C3)N4CCNCC4)C(=O)NCC5=C(C=C(NC5=O)C)C)C [GSK126] + O=C(CCCCCCC(=O)Nc1ccccc1)NO [Vorinostat] (partner 1 µM)
Method in brief: as §1

[4] = compound: NS(=O)(=O)OC[C@@H]1C[C@@H](n2ccc3c(N[C@H]4CCc5ccccc54)ncnc32)C[C@@H]1O [MLN4924] + O=C(CCCCCCC(=O)Nc1ccccc1)NO [Vorinostat] (partner 1 µM)
Method in brief: as §1

Cell Line	relative viability ([1]; first compound 0.08 µM)	relative viability ([1]; first compound 0.253 µM)	relative viability ([1]; first compound 0.8 µM)	relative viability ([1]; first compound 2.53 µM)	relative viability ([1]; first compound 8 µM)	relative viability ([2]; first compound 0.08 µM)	relative viability ([2]; first compound 0.253 µM)	relative viability ([2]; first compound 0.8 µM)	relative viability ([2]; first compound 2.53 µM)	relative viability ([2]; first compound 8 µM)	relative viability ([3]; first compound 0.08 µM)	relative viability ([3]; first compound 0.253 µM)	relative viability ([3]; first compound 0.8 µM)	relative viability ([3]; first compound 2.53 µM)	relative viability ([3]; first compound 8 µM)	relative viability ([4]; first compound 0.04 µM)	relative viability ([4]; first compound 0.1265 µM)	relative viability ([4]; first compound 0.4 µM)	relative viability ([4]; first compound 1.265 µM)	relative viability ([4]; first compound 4 µM)
NCI-H727	0.923	0.755	0.806	0.836	0.815	1.01	1.03	0.804	0.89	0.864	1.45	1.16	1.28	1.1	1.19	1.17	0.847	0.819	0.477	0.451
NCI-H2170	1.32	1.15	1.16	1.09	1.23	0.517	0.467	0.44	0.467	0.444	0.914	1.01	0.748	0.799	0.772	0.774	0.364	0.326	0.135	0.13
EKVX	0.899	0.921	0.895	0.978	1.09	0.343	0.383	0.39	0.351	0.301	0.778	0.659	0.708	0.687	0.574	0.632	0.276	0.41	0.201	0.217
NCI-H1437	0.99	0.914	0.879	0.797	0.794	0.584	0.569	0.536	0.499	0.527	0.902	0.885	0.774	0.77	0.763	0.769	0.621	0.385	0.229	0.193
PC-3 [JPC-3]	0.993	0.997	0.982	0.956	1.02	0.831	0.74	0.826	0.86	0.881	0.949	0.82	0.806	1	0.825	0.735	0.787	0.409	0.338	0.468
LK-2	0.282	0.224	0.243	0.252	0.206	0.42	0.239	0.333	0.273	0.31	0.239	0.233	0.411	0.279	0.298	0.271	0.277	0.227	0.509	0.198
NCI-H1651	0.907	0.871	0.921	0.871	0.911	0.64	0.634	0.606	0.772	0.624	0.614	0.548	0.545	0.6	0.55	0.585	0.613	0.638	0.474	0.239
LC-2-ad	0.484	0.357	0.512	0.454	0.398	0.779	0.866	0.717	0.876	0.78	0.767	0.667	0.704	0.712	0.63	0.612	0.63	0.508	0.214	0.202
NCI-H1734	0.676	0.682	0.72	0.689	0.642	0.511	0.517	0.492	0.515	0.496	0.906	0.816	0.804	0.766	0.769	0.792	0.565	0.208	0.132	0.113
NCI-H460	1.13	0.929	0.811	0.9	0.875	0.605	0.495	0.468	0.37	0.446	0.89	0.718	0.75	0.699	0.656	0.679	0.827	0.797	0.115	0.0271
NCI-H838	0.798	0.856	0.834	0.772	0.752	0.52	0.492	0.451	0.508	0.502	0.747	0.688	0.659	0.638	0.69	0.631	0.4	0.284	0.168	0.151
NCI-H2347	0.706	0.667	0.658	0.708	0.559	0.478	0.588	0.607	0.567	0.648	0.659	0.479	0.503	0.601	0.563	0.494	0.562	0.433	0.347	0.327
NCI-H647	1.17	1.04	0.96	1.18	0.986	0.445	0.356	0.484	0.383	0.437	0.724	0.61	0.614	0.592	0.687	0.414	0.391	0.0893	0.0464	0.0578
NCI-H520	0.885	0.62	0.644	0.747	0.642	0.611	0.505	0.487	0.494	0.557	0.761	0.739	0.656	0.745	0.87	0.499	0.499	0.321	0.177	0.223
